Results reported in patent publication US20100317528A1, “HERBICIDE CONTAINING BENZOYLPYRAZOLE COMPOUND” (ISHIHARA SANGYO KAISHA, LTD., priority 2006, published 2010).

Key:
Type in all cases: in vivo
[1] = test system: velvetleaf (Abutilon theophrasti MEDIC.); test: Test Example 2: soil application on the day after sowing, velvetleaf; conditions: 250 g/ha active ingredient, observed 19th to 28th day after application; for inhibition at 250 g/ha: Abutilon theophrasti, read-out: Growth inhibition rate (%) Velvetleaf
From the text: (§1) Upland field soil was put into a 1/170,000 hectare pot, and seeds of various plants barnyardgrass (Echinochloa crus-galli L.), crabgrass (Digitaria sanquinalis L.), green foxtail (Setaria viridis L.), redroot pigweed (Amaranthus retroflexus L.), prickly sida (Sida spinosa L.), velvetleaf (Abutilon theophrasti MEDIC.), rice (Oryza sativa L.), wheat (Triticum spp.), corn (Zea mays L.) and soybean (Glycine max Merr.)) were sown. On the day after sowing, wettable powders or emulsifiable concentrates of the compounds of the above formula (I) prepared in accordance with a conventional preparation method, were weighed so that the active ingredients became the prescribed amounts, and diluted with water in an amount corresponding to 500 liter per 1 hectare, followed by soil application with a small sprayer.
(§2) On the 19th to 28th day after the application, the state of growth of the respective plants was visually observed, and the herbicidal effect was evaluated by a growth inhibition rate (%) of from 0 (equivalent to the non-treated area) to 100% (complete kill).

[2] = test system: barnyardgrass (Echinochloa crus-galli L.); test: Test Example 2: soil application on the day after sowing, barnyardgrass; conditions: 250 g/ha active ingredient, observed 19th to 28th day after application; for inhibition at 250 g/ha: Echinochloa crus-galli, read-out: Growth inhibition rate (%) Barnyardgrass
From the text: as §1, §2

[3] = test system: crabgrass (Digitaria sanquinalis L.); test: Test Example 2: soil application on the day after sowing, crabgrass; conditions: 250 g/ha active ingredient, observed 19th to 28th day after application; for inhibition at 250 g/ha: Digitaria, read-out: Growth inhibition rate (%) Crabgrass
From the text: as §1, §2

[4] = test system: wheat (Triticum spp.); test: Test Example 2: soil application on the day after sowing, wheat; conditions: 250 g/ha active ingredient, observed 19th to 28th day after application; for inhibition at 250 g/ha: Triticum, read-out: Growth inhibition rate (%) Wheat
From the text: as §1, §2

[5] = test system: prickly sida (Sida spinosa L.); test: Test Example 2: soil application on the day after sowing, prickly sida; conditions: 250 g/ha active ingredient, observed 19th to 28th day after application; for inhibition at 250 g/ha: Sida spinosa, read-out: Growth inhibition rate (%) Prickly sida
From the text: as §1, §2

[6] = test system: soybean (Glycine max Merr.); test: Test Example 1: foliar treatment, upland pot test, soybean; conditions: 31 g/ha active ingredient, observed 17th to 25th day after application; for inhibition at 31 g/ha: Glycine max, read-out: Growth inhibition rate (%) Soybean
From the text: (§3) Upland field soil was put into a 1/170,000 hectare pot, and seeds of various plants were sown. When the respective plants reached predetermined leaf stage ((1) barnyardgrass (Echinochloa crus-galli L.): 1.0 to 3.0 leaf stage, (2) crabgrass (Digitaria sanguinalis L.): 1.0 to 3.0 leaf stage, (3) green foxtail (Setaria viridis L.): 1.0 to 3.0 leaf stage, (4) redroot pigweed (Amaranthus retroflexus L.): cotyledon stage to 2.0 leaf stage, (5) prickly sida (Sida spinosa L.): cotyledon stage to 1.0 leaf stage, (6) velvetleaf (Abutilon theophrasti MEDIC.): 0.1 to 1.5 leaf stage, (7) rice (Oryza sativa L.): 1.0 to 3.0 leaf stage, (8) wheat (Triticum spp.): 1.7 to 3.4 leaf stage, (9) corn (Zea mays L.): 2.0 to 3.5 leaf stage, (10) soybean (Glycine max Merr.): primary leaf stage to 0.4 leaf stage), wettable powders or emulsifiable concentrates of the compounds of the above formula (I) prepared in accordance with a conventional preparation method, were weighed so that the active ingredients became the prescribed amounts, and diluted with water in an amount corresponding to 500 liter per 1 hectare (containing 0.1 vol % of “KUSARINOH”, manufactured by NIHON NOHYAKU CO., LTD. as an agricultural spreader). The spray solutions thus prepared were applied for foliar treatment by a small sprayer.
(§4) On the 17th to 25th day after application, the state of growth of the respective plants was visually observed, and the herbicidal effect was evaluated by a growth inhibition rate (%) of 0 (equivalent to the non-treated area) to 100% (complete kill).

[7] = test system: redroot pigweed (Amaranthus retroflexus L.); test: Test Example 1: foliar treatment, upland pot test, redroot pigweed; conditions: 31 g/ha active ingredient, observed 17th to 25th day after application; for inhibition at 31 g/ha: Amaranthus retroflexus, read-out: Growth inhibition rate (%) Redroot pigweed
From the text: as §3, §4

[8] = test system: barnyardgrass (Echinochloa crus-galli L.); test: Test Example 1: foliar treatment, upland pot test, barnyardgrass; conditions: 31 g/ha active ingredient, observed 17th to 25th day after application; for inhibition at 31 g/ha: Echinochloa crus-galli, read-out: Growth inhibition rate (%) Barnyardgrass
From the text: as §3, §4

[9] = test system: corn (Zea mays L.); test: Test Example 2: soil application on the day after sowing, corn; conditions: 250 g/ha active ingredient, observed 19th to 28th day after application; for inhibition at 250 g/ha: Zea mays, read-out: Growth inhibition rate (%) Corn
From the text: as §1, §2

[10] = test system: soybean (Glycine max Merr.); test: Test Example 2: soil application on the day after sowing, soybean; conditions: 250 g/ha active ingredient, observed 19th to 28th day after application; for inhibition at 250 g/ha: Glycine max, read-out: Growth inhibition rate (%) Soybean
From the text: as §1, §2

[11] = test system: wheat (Triticum spp.); test: Test Example 1: foliar treatment, upland pot test, wheat; conditions: 31 g/ha active ingredient, observed 17th to 25th day after application; for inhibition at 31 g/ha: Triticum, read-out: Growth inhibition rate (%) Wheat
From the text: as §3, §4

[12] = test system: crabgrass (Digitaria sanguinalis L.); test: Test Example 1: foliar treatment, upland pot test, crabgrass; conditions: 31 g/ha active ingredient, observed 17th to 25th day after application; for inhibition at 31 g/ha: Digitaria sanguinalis, read-out: Growth inhibition rate (%) Crabgrass
From the text: as §3, §4

[13] = test system: velvetleaf (Abutilon theophrasti MEDIC.); test: Test Example 1: foliar treatment, upland pot test, velvetleaf; conditions: 31 g/ha active ingredient, observed 17th to 25th day after application; for inhibition at 31 g/ha: Abutilon theophrasti, read-out: Growth inhibition rate (%) Velvetleaf
From the text: as §3, §4

[14] = test system: redroot pigweed (Amaranthus retroflexus L.); test: Test Example 2: soil application on the day after sowing, redroot pigweed; conditions: 250 g/ha active ingredient, observed 19th to 28th day after application; for inhibition at 250 g/ha: Amaranthus retroflexus, read-out: Growth inhibition rate (%) Redroot pigweed
From the text: as §1, §2

[15] = test system: rice (Oryza sativa L.); test: Test Example 2: soil application on the day after sowing, rice; conditions: 250 g/ha active ingredient, observed 19th to 28th day after application; for inhibition at 250 g/ha: Oryza sativa, read-out: Growth inhibition rate (%) Rice
From the text: as §1, §2

[16] = test system: green foxtail (Setaria viridis L.); test: Test Example 1: foliar treatment, upland pot test, green foxtail; conditions: 31 g/ha active ingredient, observed 17th to 25th day after application; for inhibition at 31 g/ha: Setaria viridis, read-out: Growth inhibition rate (%) Green foxtail
From the text: as §3, §4

[17] = test system: rice (Oryza sativa L.); test: Test Example 1: foliar treatment, upland pot test, rice; conditions: 31 g/ha active ingredient, observed 17th to 25th day after application; for inhibition at 31 g/ha: Oryza sativa, read-out: Growth inhibition rate (%) Rice
From the text: as §3, §4

[18] = test system: green foxtail (Setaria viridis L.); test: Test Example 2: soil application on the day after sowing, green foxtail; conditions: 250 g/ha active ingredient, observed 19th to 28th day after application; for inhibition at 250 g/ha: Setaria viridis, read-out: Growth inhibition rate (%) Green foxtail
From the text: as §1, §2

[19] = test system: corn (Zea mays L.); test: Test Example 1: foliar treatment, upland pot test, corn; conditions: 31 g/ha active ingredient, observed 17th to 25th day after application; for inhibition at 31 g/ha: Zea mays, read-out: Growth inhibition rate (%) Corn
From the text: as §3, §4

[20] = test system: prickly sida (Sida spinosa L.); test: Test Example 1: foliar treatment, upland pot test, prickly sida; conditions: Sida spinosa, 31 g/ha active ingredient, observed 17th to 25th day after application, read-out: Growth inhibition rate (%) Prickly sida
From the text: as §3, §4

Compound | inhibition at 250 g/ha [1] [%] | inhibition at 250 g/ha [2] [%] | inhibition at 250 g/ha [3] [%] | inhibition at 250 g/ha [4] [%] | inhibition at 250 g/ha [5] [%] | inhibition at 31 g/ha [6] [%] | inhibition at 31 g/ha [7] [%] | inhibition at 31 g/ha [8] [%] | inhibition at 250 g/ha [9] [%] | inhibition at 250 g/ha [10] [%] | inhibition at 31 g/ha [11] [%] | inhibition at 31 g/ha [12] [%] | inhibition at 31 g/ha [13] [%] | inhibition at 250 g/ha [14] [%] | inhibition at 250 g/ha [15] [%] | inhibition at 31 g/ha [16] [%] | inhibition at 31 g/ha [17] [%] | inhibition at 250 g/ha [18] [%] | inhibition at 31 g/ha [19] [%] | inhibition at 31 g/ha [20] [%] | other results
Cc1c(C(=O)c2cnn(C)c2O)ccc(S(C)(=O)=O)c1C#N [compound 171] | 40 | 70 | 80 | 0 | 50 | 70 | 80 | 80 | 0 | 10 | 0 | 60 | 75 | 100 | 10 | 70 | 40 | 40 | 0 | 70 | 
COC(COc1c(S(C)(=O)=O)ccc(C(=O)c2cnn(C)c2O)c1C)OC [Compound No. 1, 5-hydroxy-1-methylpyrazol-4-yl 3-(2,2-dimethoxyethoxy)-2-methyl-4-(methylsulfonyl)phenyl ketone] | 95 | 100 | 90 | 40 | 30 | 98 | 98 | 98 | 0 | 40 | 30 | 90 | 100 | 100 | 90 | 98 | 80 | 100 | 10 | 80 | 
Cc1c(C(=O)c2cnn(C)c2O)ccc(S(C)(=O)=O)c1OC(F)F [compound 146] | 40 | 90 | 100 | 0 | 90 | 60 | 80 | 80 | 0 | 0 | 0 | 30 | 50 | 100 | 70 | 30 | 20 | 95 | 0 | 40 | 
Cc1c(C(=O)c2cnn(C)c2O)ccc(S(C)(=O)=O)c1OC(C)C [compound 145] |  |  |  |  |  |  |  |  |  |  |  |  |  |  |  |  |  |  |  |  | Growth inhibition rate (%) Velvetleaf [1]: 40%; Growth inhibition rate (%) Barnyardgrass [2]: 60%; Growth inhibition rate (%) Crabgrass [3]: 90%; Growth inhibition rate (%) Wheat [4]: 0%; Growth inhibition rate (%) Prickly sida [5]: 60%; Growth inhibition rate (%) Soybean [6]: 70%; Growth inhibition rate (%) Redroot pigweed [7]: 90%; Growth inhibition rate (%) Barnyardgrass [8]: 70%; Growth inhibition rate (%) Corn [9]: 0%; Growth inhibition rate (%) Soybean [10]: 0%; Growth inhibition rate (%) Wheat [11]: 0%; Growth inhibition rate (%) Crabgrass [12]: 60%; Growth inhibition rate (%) Velvetleaf [13]: 85%; Growth inhibition rate (%) Redroot pigweed [14]: 60%; Growth inhibition rate (%) Rice [15]: 0%; Growth inhibition rate (%) Green foxtail [16]: 75%; Growth inhibition rate (%) Rice [17]: 60%; Growth inhibition rate (%) Green foxtail [18]: 30%; Growth inhibition rate (%) Corn [19]: 0%
COC(=O)c1c(S(C)(=O)=O)ccc(C(=O)c2cnn(C)c2O)c1C [compound 126] | 70 | 90 | 100 | 10 | 70 |  | 100 | 95 | 0 | 60 | 0 | 80 | 100 | 100 | 95 | 100 | 100 | 70 | 5 | 90 | 
